Type in all cases: cell-based, Escherichia coli
For one test, the system named is ΔtolC-Pore. As to the kind of experiment: microbe, parasite or virus in culture. In outline: (§1)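 E. coli strains carrying a genomically integrated constitutive fhuA ΔC/Δ4L pore were grown 18 h in LB at 37 °C, then diluted 1/2000 in MHB II from OD600 ~1.0. Compounds were tested in duplicate, 2-fold serial titration, for 18 h at 37 °C with shaking. MIC came from OD600 with the pre-incubation background subtracted.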

The test system of a further test is wild-type (WT) K-12-Pore. The test can be described thus: microbe, parasite or virus in culture. Conditions: Escherichia coli, technical duplicate. In outline:
as §1

A further test deals with EKO-35-Pore. As to the kind of experiment: MIC susceptibility profiling, porinated strain. Conditions: Escherichia coli, technical duplicate. In outline:
as §1

Test [1] relates to EKO-35 araC::acrBD408A Pore. As to the kind of experiment: MIC susceptibility profiling, porinated efflux platform. Conditions: Escherichia coli; EKO-35 araC::acrBD408A Pore; technical duplicate; read-out: Minimum inhibitory concentration. The method in brief: as §1
In a further test the test system is EKO-35 araC::emrAB Pore. Described as above. Conditions: Escherichia coli; EKO-35 araC::emrAB Pore; technical duplicate; read-out: Minimum inhibitory concentration. In outline:
as §1

A further test deals with EKO-35 araC::mdtEF Pore. The test is described as above. To be noted: Escherichia coli; Table 14A; porinated; technical duplicate; read-out: Minimum inhibitory concentration, EKO-35 araC::mdtEF Pore. In outline:
as §1

The subject of a further test is EKO-35 araC::macAB Pore. The test is described as above. To be noted: Escherichia coli; EKO-35 araC::macAB Pore; technical duplicate; read-out: Minimum inhibitory concentration. The method in brief:
as §1

The subject of another test is EKO-35 araC::mexCD Pore. The test is described as above. Conditions: Escherichia coli; EKO-35 araC::mexCD Pore; technical duplicate; read-out: Minimum inhibitory concentration. In outline: as §1
For another test, the system named is EKO-35 araC::acrEF Pore. The test is described as above. To be noted: Escherichia coli; Table 14A; porinated; technical duplicate; read-out: Minimum inhibitory concentration, EKO-35 araC::acrEF Pore. The method in brief: as §1
A further test relates to EKO-35 araC::mdtBC Pore. The description is as above. Conditions: Escherichia coli; EKO-35 araC::mdtBC Pore; technical duplicate; read-out: Minimum inhibitory concentration. The method in brief: as §1
The next test concerns EKO-35 araC::acrD Pore. The test is described as above. Conditions: Escherichia coli; Table 14A; porinated; technical duplicate; read-out: Minimum inhibitory concentration, EKO-35 araC::acrD Pore. In outline:
as §1

Another test concerns EKO-35 araC::acrB Pore. The test is described as above. To be noted: Escherichia coli; Table 14A; porinated; technical duplicate; read-out: Minimum inhibitory concentration, EKO-35 araC::acrB Pore. In outline: as §1
Another test concerns EKO-35 araC::emrKY Pore. The test is described as above. To be noted: Escherichia coli; EKO-35 araC::emrKY Pore; technical duplicate; read-out: Minimum inhibitory concentration. In outline: as §1
Another test has as its system E. coli EKO-35. The test can be described thus: microbe, parasite or virus in culture. Conditions: Escherichia coli, EKO35, technical duplicate. In outline: (§2)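 Turbidity (OD600, pre-incubation subtracted) defined growth after 18 h at 37 °C in MHB II. The inoculum was diluted 1/2000 from an OD600 ~1.0 PBS suspension of an overnight LB culture. Compounds were run as duplicate twofold dilutions.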

The subject of a further test is E. coli ΔtolC. As to the kind of experiment: microbe, parasite or virus in culture. The method in brief: as §2
In test [2] the test system is wild-type E. coli K-12 str. BW25113. As to the kind of experiment: microbe, parasite or virus in culture. Conditions: Escherichia coli, BW25113, technical duplicate. The method in brief: as §2
A further test has as its system EKO-35 araC::mdtBC. As to the kind of experiment: MIC susceptibility profiling, efflux platform. To be noted: Escherichia coli; Table 13B; non-porinated; technical duplicate; read-out: Minimum Inhibitory Concentration, EKO-35 araC::mdtBC. In outline:
as §2

In another test the test system is EKO-35 araC::mdtEF. The test can be described thus: MIC susceptibility profiling, efflux platform. Conditions: Escherichia coli; Table 13A; non-porinated; technical duplicate; read-out: Minimum Inhibitory Concentration, EKO-35 araC::mdtEF. In outline: as §2

Read-outs that look alike come from different tables or passages of the source.

Consider one compound from patent US20230407243A1, “GENETIC PLATFORM TO INVESTIGATE THE FUNCTIONS OF BACTERIAL DRUG EFFLUX PUMPS” (priority 2022, published 2023).

In the case of `Cc1onc(-c2ccccc2)c1C(=O)N[C@@H]1C(=O)N2[C@@H]1SC(C)(C)[C@@H]2C(=O)O` [oxacillin], the MIC with ΔtolC-Pore (Escherichia coli, 18 h, read-out: Minimum inhibitory concentration, ΔtolC-Pore) was determined as 0.313 mg/L; with wild-type (WT) K-12-Pore (Table 10, with pore, read-out: Minimum inhibitory concentration (MIC), Pore K-12), 40 mg/L; with wild-type (WT) K-12-Pore (Table 14A, porinated, read-out: Minimum inhibitory concentration, K-12 (WT)-Pore), 40 mg/L; with EKO-35-Pore (Table 10, with pore, read-out: Minimum inhibitory concentration (MIC), Pore EKO-35), 0.313 mg/L; in the test on EKO-35-Pore (Table 14A, porinated, read-out: Minimum inhibitory concentration, EKO-35-Pore), 0.313 mg/L; in [1] it was 0.156 mg/L. Besides, the MIC in the test with EKO-35 araC::emrAB Pore was 0.313 mg/L; in the test on EKO-35 araC::mdtEF Pore, 1.25 mg/L; in the test on EKO-35 araC::macAB Pore it was 0.313 mg/L; with EKO-35 araC::mexCD Pore, 2.5 mg/L; with EKO-35 araC::acrEF Pore, 5 mg/L; in the test on EKO-35 araC::mdtBC Pore it was 0.313 mg/L. Besides, the MIC in the test on EKO-35 araC::acrD Pore was found to be 20 mg/L; in the test on EKO-35 araC::acrB Pore, 20 mg/L; in the test with EKO-35 araC::emrKY Pore, 0.313 mg/L; with E. coli EKO-35 (Table 10, without pore, read-out: Minimum inhibitory concentration (MIC), EKO-35), 0.625 mg/L; in the test on E. coli EKO-35 (Table 13A, non-porinated, read-out: Minimum Inhibitory Concentration, EKO-35), 0.625 mg/L; with E. coli ΔtolC (Escherichia coli, 18 h, read-out: Minimum Inhibitory Concentration, ΔtolC), 0.625 mg/L. For the same compound, the MIC in test [2] (Table 10, without pore, read-out: Minimum inhibitory concentration (MIC), K-12) worked out at 160 mg/L; in test [2] (Table 13A, non-porinated, read-out: Minimum Inhibitory Concentration, K-12), 160 mg/L; with EKO-35 araC::mdtBC, 0.625 mg/L; with EKO-35 araC::mdtEF, 20 mg/L. Moreover, the “Minimum inhibitory concentration (MIC), Pore ΔtolC” value in the test with ΔtolC-Pore (Table 10, with pore, technical duplicate) was found to be 0.313 mg/L. Besides, the “Minimum inhibitory concentration (MIC), ΔtolC” value in the test on E. coli ΔtolC (Table 10, without pore, technical duplicate) worked out at 0.625 mg/L.
